From patent US20260022142A1, “MACROCYCLIC IMMUNOMODULATORS” (Bristol-Myers Squibb Company, priority 2022, published 2026)
pIC50: −log10 of the molar value. Bridge positions count the residues as written; N and C are the ends. Square brackets hold non-standard residues; d marks the D form. Peptide text beside a SMILES is read from it. * marks the point of attachment. ξ: configuration not given here. Bip = N[C@@H](Cc1ccc(-c2ccccc2)cc1)C(=O)O; Phe(3-Me) = Cc1cccc(C[C@H](N)C(=O)O)c1; Cyclopropanecarbonyl = O=C(C1CC1)*; NMeR = CN[C@@H](CCCNC(=N)N)C(=O)O; hArg = N=C(N)NCCCC[C@H](N)C(=O)O; Cha = N[C@@H](CC1CCCCC1)C(=O)O; Cit = NC(=O)NCCC[C@H](N)C(=O)O; Thr(3ξ) = CC(O)[C@H](N)C(=O)O; 12Ado = NCCCCCCCCCCCC(=O)O; hSer = N[C@@H](CCO)C(=O)O; Carboxymethyl = O=C(O)C*; Orn = NCCC[C@H](N)C(=O)O; Aun = NCCCCCCCCCCC(=O)O; Dab = NCC[C@H](N)C(=O)O; Dap = NC[C@H](N)C(=O)O

Target: T1, PD-1/PD-L1 interaction (PE-labeled human PD-L1-Ig binding to Jurkat cell line over-expressing human PD-1) (Homo sapiens, UniProt Q15116)
T1 construct: expressed in transfected cells; host or cells: Jurkat
T1 sequence (Q15116 25-288): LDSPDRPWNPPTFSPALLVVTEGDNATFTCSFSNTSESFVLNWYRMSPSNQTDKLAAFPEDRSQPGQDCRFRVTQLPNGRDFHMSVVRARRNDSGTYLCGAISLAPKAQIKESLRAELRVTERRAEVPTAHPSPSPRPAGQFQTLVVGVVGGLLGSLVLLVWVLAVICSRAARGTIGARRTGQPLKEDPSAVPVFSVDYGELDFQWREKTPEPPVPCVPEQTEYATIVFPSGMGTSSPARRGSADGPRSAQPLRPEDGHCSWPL
Test: Jurkat-PD-1 Cell Binding High-Content Screening Assay (CBA)
Assay type: cell-based
Details: Jurkat cell line over-expressing human PD-1; PE-labeled PD-L1-Ig 20 nM final; read-out: Jurkat hPD1-PDL1 IC50
Method in brief: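 Binding of fluorescent PD-L1-Ig (phycoerythrin on Ig tag, 20 nM final, 1 h) measured by high-content imaging of fixed, Hoechst-counterstained Jurkat-hPD-1 cells. Compound added 2 h at 37° C beforehand, in DMEM with 10% fetal calf serum.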

pIC50 | SMILES
7.55 | Cc1cccc(C[C@@H]2NC(=O)[C@H](CC(=O)O)NC(=O)[C@H](Cc3ccc(OCC(=O)O)cc3)NC(=O)[C@H](CCCNC(=N)N)N(C)C(=O)CSC[C@@H](C(=O)N[C@@H](CCN)C(=O)NCCCCCCCCCCC(=O)O)NC(=O)[C@H](C(C)O)NC(=O)[C@H](C(C)C)NC(=O)[C@H](CC3CCCCC3)NC(=O)[C@H](CCN)NC(=O)[C@@H](CC(C)C)NC(=O)[C@H](CCCN)NC(=O)[C@H](CCCNC(N)=O)NC(=O)[C@H](Cc3ccc(-c4ccccc4)cc3)NC(=O)[C@H](C(C)C)NC2=O)c1 (stereo partly drawn) [Compound 3562] ({CH2CO}-[NMeR]Y(Carboxymethyl)D[Phe(3-Me)]V[Bip][Cit][Orn][dL][Dab][Cha]V[Thr(3ξ)]C[Dab][Aun]-OH; thioether N-14)
7.36 | CC(=O)NCCCC[C@H](NC(=O)[C@@H]1CSCC(=O)N[C@@H](CCN)C(=O)N[C@@H](Cc2ccc(OCC(=O)O)cc2)C(=O)N[C@@H](CC(=O)O)C(=O)N[C@@H](Cc2cccc(C)c2)C(=O)N[C@@H](C(C)C)C(=O)N[C@@H](Cc2ccc(-c3ccccc3)cc2)C(=O)N[C@@H](CCCNC(N)=O)C(=O)N[C@@H](CCCN)C(=O)N[C@H](CC(C)C)C(=O)N[C@@H](CN)C(=O)N[C@@H](CC2CCCCC2)C(=O)N[C@@H](C(C)C)C(=O)N[C@@H](C(C)O)C(=O)N1)C(=O)NCCCCCCCCCCC(=O)O (stereo partly drawn) [Compound 3563] ({CH2CO}-[Dab]Y(Carboxymethyl)D[Phe(3-Me)]V[Bip][Cit][Orn][dL][Dap][Cha]V[Thr(3ξ)]CK(Ac)[Aun]-OH; thioether N-14)
7.71 | Cc1cccc(C[C@@H]2NC(=O)[C@H](CC(=O)O)NC(=O)[C@H](Cc3ccc(OCC(=O)O)cc3)NC(=O)[C@H](CCCNC(=N)N)NC(=O)CSC[C@@H](C(=O)N[C@@H](CCO)C(=O)N[C@@H](CCC(=O)O)C(=O)NCCCCCCCCCCCC(=O)O)NC(=O)[C@H](C(C)O)NC(=O)[C@H](C(C)C)NC(=O)[C@H](CC3CCCCC3)NC(=O)[C@H](CCN)NC(=O)[C@@H](CC(C)C)NC(=O)[C@H](CCCN)NC(=O)[C@H](CCCNC(N)=O)NC(=O)[C@H](Cc3ccc(-c4ccccc4)cc3)NC(=O)[C@H](C(C)C)NC2=O)c1 (stereo partly drawn) [Compound 3564] ({CH2CO}-RY(Carboxymethyl)D[Phe(3-Me)]V[Bip][Cit][Orn][dL][Dab][Cha]V[Thr(3ξ)]C[hSer]E[12Ado]-OH; thioether N-14)
7.40 | Cc1cccc(C[C@@H]2NC(=O)[C@H](CC(=O)O)NC(=O)[C@H](Cc3ccc(OCC(=O)O)cc3)NC(=O)[C@H](CCCNC(=N)N)NC(=O)CSC[C@@H](C(=O)N[C@@H](CCO)C(=O)NCCCCCCCCCCCC(=O)O)NC(=O)[C@H](C(C)O)NC(=O)[C@H](C(C)C)NC(=O)[C@H](CC3CCCCC3)NC(=O)[C@H](CCN)NC(=O)[C@@H](CC(C)C)NC(=O)[C@H](CCCN)NC(=O)[C@H](CCCNC(N)=O)NC(=O)[C@H](Cc3ccc(-c4ccccc4)cc3)NC(=O)[C@H](C(C)C)NC2=O)c1 (stereo partly drawn) [Compound 3565] ({CH2CO}-RY(Carboxymethyl)D[Phe(3-Me)]V[Bip][Cit][Orn][dL][Dab][Cha]V[Thr(3ξ)]C[hSer][12Ado]-OH; thioether N-14)
7.72 | Cc1cccc(C[C@@H]2NC(=O)[C@H](CC(=O)O)NC(=O)[C@H](Cc3ccc(OCC(=O)O)cc3)NC(=O)[C@H](CCO)NC(=O)CSC[C@@H](C(=O)N[C@@H](CCO)C(=O)N[C@@H](CO)C(=O)NCCCCCCCCCCCC(=O)O)NC(=O)[C@H](C(C)O)NC(=O)[C@H](C(C)C)NC(=O)[C@H](CC3CCCCC3)NC(=O)[C@H](CCN)NC(=O)[C@@H](CC(C)C)NC(=O)[C@H](CCCN)NC(=O)[C@H](CCCNC(N)=O)NC(=O)[C@H](Cc3ccc(-c4ccccc4)cc3)NC(=O)[C@H](C(C)C)NC2=O)c1 (stereo partly drawn) [Compound 3566] ({CH2CO}-[hSer]Y(Carboxymethyl)D[Phe(3-Me)]V[Bip][Cit][Orn][dL][Dab][Cha]V[Thr(3ξ)]C[hSer]S[12Ado]-OH; thioether N-14)
7.47 | Cc1cccc(C[C@@H]2NC(=O)[C@H](CC(=O)O)NC(=O)[C@H](Cc3ccc(OCC(=O)O)cc3)NC(=O)[C@H](C(C)O)NC(=O)CSC[C@@H](C(=O)N[C@@H](CCC(=O)O)C(=O)N[C@@H](CO)C(=O)NCCCCCCCCCCC(=O)O)NC(=O)[C@H](C(C)O)NC(=O)[C@H](C(C)C)NC(=O)[C@H](CC3CCCCC3)NC(=O)[C@H](CCN)NC(=O)[C@@H](CC(C)C)NC(=O)[C@H](CCCN)NC(=O)[C@H](CCCNC(N)=O)NC(=O)[C@H](Cc3ccc(-c4ccccc4)cc3)NC(=O)[C@H](C(C)C)NC2=O)c1 (stereo partly drawn) [Compound 3567] ({CH2CO}-[Thr(3ξ)]Y(Carboxymethyl)D[Phe(3-Me)]V[Bip][Cit][Orn][dL][Dab][Cha]V[Thr(3ξ)]CES[Aun]-OH; thioether N-14)
7.82 | Cc1cccc(C[C@@H]2NC(=O)[C@H](CC(=O)O)NC(=O)[C@H](Cc3ccc(OCC(=O)O)cc3)NC(=O)[C@H](CCCCNC(=N)N)NC(=O)CSC[C@@H](C(=O)N[C@@H](CCCN)C(=O)N[C@@H](CCO)C(=O)NCCCCCCCCCCCC(=O)O)NC(=O)[C@H](C(C)O)NC(=O)[C@H](C(C)C)NC(=O)[C@H](CC3CCCCC3)NC(=O)[C@H](CCN)NC(=O)[C@@H](CC(C)C)NC(=O)[C@H](CCCN)NC(=O)[C@H](CCCNC(N)=O)NC(=O)[C@H](Cc3ccc(-c4ccccc4)cc3)NC(=O)[C@H](C(C)C)NC2=O)c1 (stereo partly drawn) [Compound 3568] ({CH2CO}-[hArg]Y(Carboxymethyl)D[Phe(3-Me)]V[Bip][Cit][Orn][dL][Dab][Cha]V[Thr(3ξ)]C[Orn][hSer][12Ado]-OH; thioether N-14)
7.63 | Cc1cccc(C[C@@H]2NC(=O)[C@H](CC(=O)O)NC(=O)[C@H](Cc3ccc(OCC(=O)O)cc3)NC(=O)[C@H](CO)NC(=O)CSC[C@@H](C(=O)N[C@@H](CCO)C(=O)N[C@@H](CO)C(=O)NCCCCCCCCCCCC(=O)O)NC(=O)[C@H](C(C)O)NC(=O)[C@H](C(C)C)NC(=O)[C@H](CC3CCCCC3)NC(=O)[C@H](CCN)NC(=O)[C@@H](CC(C)C)NC(=O)[C@H](CCCN)NC(=O)[C@H](CCCNC(N)=O)NC(=O)[C@H](Cc3ccc(-c4ccccc4)cc3)NC(=O)[C@H](C(C)C)NC2=O)c1 (stereo partly drawn) [Compound 3569] ({CH2CO}-SY(Carboxymethyl)D[Phe(3-Me)]V[Bip][Cit][Orn][dL][Dab][Cha]V[Thr(3ξ)]C[hSer]S[12Ado]-OH; thioether N-14)
7.79 | Cc1cccc(C[C@@H]2NC(=O)[C@H](CC(=O)O)NC(=O)[C@H](Cc3ccc(OCC(=O)O)cc3)NC(=O)[C@H](CCCCNC(=N)N)NC(=O)CSC[C@@H](C(=O)N[C@@H](CCN)C(=O)N[C@@H](CO)C(=O)NCCCCCCCCCCCC(=O)O)NC(=O)[C@H](C(C)O)NC(=O)[C@H](C(C)C)NC(=O)[C@H](CC3CCCCC3)NC(=O)[C@H](CCN)NC(=O)[C@@H](CC(C)C)NC(=O)[C@H](CCCN)NC(=O)[C@H](CCCNC(N)=O)NC(=O)[C@H](Cc3ccc(-c4ccccc4)cc3)NC(=O)[C@H](C(C)C)NC2=O)c1 (stereo partly drawn) [Compound 3570] ({CH2CO}-[hArg]Y(Carboxymethyl)D[Phe(3-Me)]V[Bip][Cit][Orn][dL][Dab][Cha]V[Thr(3ξ)]C[Dab]S[12Ado]-OH; thioether N-14)
7.77 | Cc1cccc(C[C@@H]2NC(=O)[C@H](CC(=O)O)NC(=O)[C@H](Cc3ccc(OCC(=O)O)cc3)NC(=O)[C@H](CCCCNC(=N)N)NC(=O)CSC[C@@H](C(=O)N[C@@H](CCN)C(=O)N[C@@H](CO)C(=O)NCCCCCCCCCCCC(=O)O)NC(=O)[C@H](CO)NC(=O)[C@H](C(C)C)NC(=O)[C@H](CC3CCCCC3)NC(=O)[C@H](CCN)NC(=O)[C@@H](CC(C)C)NC(=O)[C@H](CCCN)NC(=O)[C@H](CCCNC(=N)N)NC(=O)[C@H](Cc3ccc(-c4ccccc4)cc3)NC(=O)[C@H](C(C)C)NC2=O)c1 [Compound 3571] ({CH2CO}-[hArg]Y(Carboxymethyl)D[Phe(3-Me)]V[Bip]R[Orn][dL][Dab][Cha]VSC[Dab]S[12Ado]-OH; thioether N-14)
7.58 | Cc1cccc(C[C@@H]2NC(=O)[C@H](CC(=O)O)NC(=O)[C@H](Cc3ccc(OCC(=O)O)cc3)NC(=O)[C@H](CCCNC(=O)C3CC3)NC(=O)CSC[C@@H](C(=O)N[C@@H](CCCN)C(=O)N[C@@H](CO)C(=O)NCCCCCCCCCCCC(=O)O)NC(=O)[C@H](C(C)O)NC(=O)[C@H](C(C)C)NC(=O)[C@H](CC3CCCCC3)NC(=O)[C@H](CCN)NC(=O)[C@@H](CC(C)C)NC(=O)[C@H](CCCN)NC(=O)[C@H](CCCNC(=N)N)NC(=O)[C@H](Cc3ccc(-c4ccccc4)cc3)NC(=O)[C@H](C(C)C)NC2=O)c1 (stereo partly drawn) [Compound 3572] ({CH2CO}-[Orn](Cyclopropanecarbonyl)Y(Carboxymethyl)D[Phe(3-Me)]V[Bip]R[Orn][dL][Dab][Cha]V[Thr(3ξ)]C[Orn]S[12Ado]-OH; thioether N-14)
7.57 | Cc1cccc(C[C@@H]2NC(=O)[C@H](CC(=O)O)NC(=O)[C@H](Cc3ccc(OCC(=O)O)cc3)NC(=O)[C@H](CCCCNC(=N)N)NC(=O)CSC[C@@H](C(=O)N[C@@H](CCCN)C(=O)N[C@@H](CO)C(=O)NCCCCCCCCCCCC(=O)O)NC(=O)[C@H](C(C)O)NC(=O)[C@H](CCO)NC(=O)[C@H](CC3CCCCC3)NC(=O)[C@H](CCN)NC(=O)[C@@H](CC(C)C)NC(=O)[C@H](CCCN)NC(=O)[C@H](CCCNC(=N)N)NC(=O)[C@H](Cc3ccc(-c4ccccc4)cc3)NC(=O)[C@H](C(C)C)NC2=O)c1 (stereo partly drawn) [Compound 3574] ({CH2CO}-[hArg]Y(Carboxymethyl)D[Phe(3-Me)]V[Bip]R[Orn][dL][Dab][Cha][hSer][Thr(3ξ)]C[Orn]S[12Ado]-OH; thioether N-14)
7.49 | Cc1cccc(C[C@@H]2NC(=O)[C@H](CC(=O)O)NC(=O)[C@H](Cc3ccc(OCC(=O)O)cc3)NC(=O)[C@H](CCCCNC(=N)N)NC(=O)CSC[C@@H](C(=O)N[C@@H](CCCN)C(=O)N[C@@H](CO)C(=O)NCCCCCCCCCCCC(=O)O)NC(=O)[C@H](C(C)O)NC(=O)[C@H](C(C)C)NC(=O)[C@H](CC3CCCCC3)NC(=O)[C@H](CCN)NC(=O)[C@@H](CC(C)C)NC(=O)[C@H](CCCN)NC(=O)[C@H](CCCNC(=N)N)NC(=O)[C@H](Cc3ccc(-c4ccccc4)cc3)NC(=O)[C@H](C(C)C)NC2=O)c1 (stereo partly drawn) [Compound 3575] ({CH2CO}-[hArg]Y(Carboxymethyl)D[Phe(3-Me)]V[Bip]R[Orn][dL][Dab][Cha]V[Thr(3ξ)]C[Orn]S[12Ado]-OH; thioether N-14)
